Values belong to the molecule of their own block, whether it stands above or below them.
How the values were obtained:
[1] = Monitoring of the plasma concentration of 3 octasaccharides in beagle dogs after subcutaneous administration (plasma filtration + anion-exchange HPLC); assay type: in vivo, male dogs of the beagle breed; details: 0.5 mg/kg each
Experimental: (§1) A plasma sample with a volume of between 100 and 1000 μl is withdrawn and, if appropriate, the internal standard is added to the latter.
(§2) After homogenization, the resulting solution is introduced into a 30 kD Ultrafree 05 ultrafiltration cartridge (Millipore) rinsed beforehand with 250 μl of water by centrifuging at 10 000 rev/min for 5 minutes. The plasma is introduced into the upper part of the cartridge once or twice, if the amounts to be filtered are greater than 500 μl.
(§3) The cartridge is centrifuged at 10 000 rev/min for between 1 and 2 hours and then the filtrate is withdrawn. If appropriate, the second part of the plasma to be filtered is introduced into the upper part of the cartridge and the latter is again centrifuged. The exact amount of plasma introduced will have been weighed. The cartridge is centrifuged until the protein residue in the upper part of the cartridge represents no more than approximately 10% of the initial part.
(§4) The filtrate is withdrawn and 210 μl of 3M KCl per ml of plasma filtered are added to the concentrate.
(§5) After homogenization, the cartridge is centrifuged at 10 000 rev/min for between 1 and 4 hours. The cartridge is centrifuged until the protein residue in the upper part of the cartridge represents no more than approximately 10% of the initial part.
(§6) The second filtrate is withdrawn and 210 μl of 3M KCl per ml of plasma filtered are added a second time to the concentrate.
(§7) The third filtrate is withdrawn and 250 μl of water per ml of plasma filtered are added.
(§8) The filtrates are combined and diluted 5 fold in water, and the whole is injected directly in anion-exchange HPLC. Immediately before injection, the pH of the injected solution is adjusted to 3 by addition of 1N HCl.
(§9) The filtered plasma is analyzed by anion-exchange HPLC.
(§10) The columns used are IonPAc As11 columns (Dionex), with a length of 25 cm and an internal diameter of 2 mm. The detector used is a UV spectrophotometer equipped with an array of diodes.
(§11) The whole of the […] is injected after adjustment of the pH to 3 by addition of N HCl. The flow rate chosen is 0.22 ml/min; the column temperature is 40° C.
(§12) Elution is carried out in gradient mode. The two solutions used are:
(§13) Solvent A: NaH2PO4 2.5 mM, brought to pH 2.9 by addition of H3PO4
(§14) Solvent B: NaClO4 1N, NaH2PO4 2.5 mM, brought to pH 3.0 by addition of H3PO4
(§15) The elution gradient is as follows:
(§16) T=0 min: % B=3; T=40 min: % B=60; T=60 min: % B=80
The evolution of a mixture of three octasaccharides in the blood of male dogs of the beagle breed is monitored. These 3 octasaccharides, symbolized ΔIIaIIsIsIs, ΔIsIIaIIsIs and ΔIIaIIsIsIs^1,6-anhydro, are the main affinity octasaccharides of the octasaccharide fractions of Lovenox®.
The mixture is administered subcutaneously to 3 male dogs of the beagle breed at a target dose with regard to each of these 3 constituents of 0.5 mg/kg. The administration solution is a 0.9% NaCl solution of the mixture of the 3 octasaccharides at the target concentration of 0.5 mg/ml. Blood samples of 5 ml are withdrawn at the times 0, 0.25 h, 0.5 h, 1 h, 2 h, 4 h, 6 h, 8 h, 24 h, 30 h and 48 h after administration. The blood samples withdrawn are collected in tubes containing 400 μl of a CTAD (citrate, theophylline, adenosine, dipyridamole) mixture. After homogenization, the solution is centrifuged at 3000 g at 15° C. for 15 min. The plasma supernatant is recovered and stored at −20° C. until use.
For the treatment of the plasma before HPLC injection, approximately 1 ml of plasma is withdrawn and weighed, to which 50 μl of a solution of the internal standard at a concentration of approximately 0.02 g/l are added.
The internal standard is chosen so that it is structurally as close as possible to the products to be analyzed. Its structure is given below.
The tetrasaccharide used makes it possible to correct the potentional influence of the variations in the extraction yield.
The plasma is treated and analyzed by HPLC.

ATIII = ATIII (Homo sapiens, UniProt P01008); assay: Affinity for ATIII; assay type: binding
ATIII, sequence (P01008 33-464, species assumed): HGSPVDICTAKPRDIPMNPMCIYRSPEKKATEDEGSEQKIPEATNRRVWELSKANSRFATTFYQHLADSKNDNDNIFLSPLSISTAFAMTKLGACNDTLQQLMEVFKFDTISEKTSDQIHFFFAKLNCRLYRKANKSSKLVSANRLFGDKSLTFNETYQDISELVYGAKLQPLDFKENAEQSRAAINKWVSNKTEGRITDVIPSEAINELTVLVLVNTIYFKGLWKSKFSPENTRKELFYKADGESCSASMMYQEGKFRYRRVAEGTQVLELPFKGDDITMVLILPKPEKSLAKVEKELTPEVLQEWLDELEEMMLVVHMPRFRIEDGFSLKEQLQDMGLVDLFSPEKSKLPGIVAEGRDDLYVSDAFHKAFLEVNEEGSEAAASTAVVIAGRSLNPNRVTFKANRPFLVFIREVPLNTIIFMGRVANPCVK

[2] = Monitoring of the plasma concentration of the main oligosaccharides of a VLMWH in human volunteers (plasma filtration + anion-exchange HPLC); assay type: in vivo
Experimental: as §1, §2, §3, §4, §5, §6, §7, §8, §9, §10, §11, §12, §13, §14, §15, §16
A VLMWH with an average molecular weight of 2500 Da is administered at the target dose of 1.4 mg/kg to human volunteers. Blood samples are withdrawn at the times 0, 0.25 h, 0.5 h, 0.75 h, 1 h, 1.25 h, 1.5 h, 2 h, 2.5 h, 3 h, 3.5 h, 4 h, 4.5 h, 5 h, 6 h, 7 h, 8 h, 9 h, 10 h, 12 h, 14 h and 24 h after administration.
As the VLMWH used is a complex mixture of oligosaccharides, the study was limited to certain components chosen from this mixture.

plasma concentration ([1]; Dog 1, 0 h after subcutaneous administration): 0 nM
plasma concentration ([1]; Dog 1, 0.25 h after subcutaneous administration): 50 nM
plasma concentration ([1]; Dog 1, 0.5 h after subcutaneous administration): 170 nM
plasma concentration ([1]; Dog 1, 1 h after subcutaneous administration): 340 nM
plasma concentration ([1]; Dog 1, 2 h after subcutaneous administration): 560 nM
plasma concentration ([1]; Dog 1, 4 h after subcutaneous administration): 440 nM
plasma concentration ([1]; Dog 1, 6 h after subcutaneous administration): 370 nM
plasma concentration ([1]; Dog 1, 8 h after subcutaneous administration): 300 nM
plasma concentration ([1]; Dog 1, 24 h after subcutaneous administration): 60 nM
plasma concentration ([1]; Dog 1, 30 h after subcutaneous administration): 30 nM
plasma concentration ([1]; Dog 1, 48 h after subcutaneous administration): 10 nM
plasma concentration ([1]; Dog 2, 0 h after subcutaneous administration): 0 nM
plasma concentration ([1]; Dog 2, 0.25 h after subcutaneous administration): 50 nM
plasma concentration ([1]; Dog 2, 0.5 h after subcutaneous administration): 100 nM
plasma concentration ([1]; Dog 2, 1 h after subcutaneous administration): 210 nM
plasma concentration ([1]; Dog 2, 2 h after subcutaneous administration): 320 nM
plasma concentration ([1]; Dog 2, 4 h after subcutaneous administration): 300 nM
plasma concentration ([1]; Dog 2, 6 h after subcutaneous administration): 370 nM
plasma concentration ([1]; Dog 2, 8 h after subcutaneous administration): 250 nM
plasma concentration ([1]; Dog 2, 24 h after subcutaneous administration): 50 nM
plasma concentration ([1]; Dog 2, 30 h after subcutaneous administration): 30 nM
plasma concentration ([1]; Dog 2, 48 h after subcutaneous administration): 10 nM
plasma concentration ([1]; Dog 3, 0 h after subcutaneous administration): 0 nM
plasma concentration ([1]; Dog 3, 0.25 h after subcutaneous administration): 60 nM
plasma concentration ([1]; Dog 3, 0.5 h after subcutaneous administration): 170 nM
plasma concentration ([1]; Dog 3, 1 h after subcutaneous administration): 240 nM
plasma concentration ([1]; Dog 3, 2 h after subcutaneous administration): 340 nM
plasma concentration ([1]; Dog 3, 4 h after subcutaneous administration): 460 nM
plasma concentration ([1]; Dog 3, 6 h after subcutaneous administration): 380 nM
plasma concentration ([1]; Dog 3, 8 h after subcutaneous administration): 300 nM
plasma concentration ([1]; Dog 3, 24 h after subcutaneous administration): 50 nM
plasma concentration ([1]; Dog 3, 30 h after subcutaneous administration): 40 nM
plasma concentration ([1]; Dog 3, 48 h after subcutaneous administration): 10 nM
affinity for ATIII (ATIII): high affinity for ATIII
Compound: CC(=O)N[C@H]1[C@@H](O[C@H]2[C@H](O)[C@@H](O)[C@H](O[C@H]3[C@H](OS(=O)(=O)O)[C@@H](NS(=O)(=O)O)[C@@H](O[C@H]4[C@H](O)[C@@H](OS(=O)(=O)O)[C@H](O[C@H]5[C@H](O)[C@@H](NS(=O)(=O)O)[C@@H](O[C@H]6[C@H](O)[C@@H](OS(=O)(=O)O)[C@H](O[C@H]7[C@H](O)C(NS(=O)(=O)O)[C@@H]8OC[C@H]7O8)O[C@H]6C(=O)O)O[C@@H]5COS(=O)(=O)O)O[C@H]4C(=O)O)O[C@@H]3COS(=O)(=O)O)O[C@@H]2C(=O)O)O[C@H](COS(=O)(=O)O)[C@@H](O[C@@H]2OC(C(=O)O)=C[C@H](O)[C@H]2O)[C@@H]1O (stereo partly shown) [ΔIIaIIsIsIs^1,6-anhydro]

plasma concentration ([2]; 0 h after administration of VLMWH (2500 Da) 1.4 mg/kg): 0 nM
plasma concentration ([2]; 0.25 h after administration of VLMWH (2500 Da) 1.4 mg/kg): 160 nM
plasma concentration ([2]; 0.5 h after administration of VLMWH (2500 Da) 1.4 mg/kg): 240 nM
plasma concentration ([2]; 0.75 h after administration of VLMWH (2500 Da) 1.4 mg/kg): 210 nM
plasma concentration ([2]; 1 h after administration of VLMWH (2500 Da) 1.4 mg/kg): 200 nM
plasma concentration ([2]; 1.25 h after administration of VLMWH (2500 Da) 1.4 mg/kg): 190 nM
plasma concentration ([2]; 1.5 h after administration of VLMWH (2500 Da) 1.4 mg/kg): 190 nM
plasma concentration ([2]; 2 h after administration of VLMWH (2500 Da) 1.4 mg/kg): 150 nM
plasma concentration ([2]; 2.5 h after administration of VLMWH (2500 Da) 1.4 mg/kg): 100 nM
plasma concentration ([2]; 3 h after administration of VLMWH (2500 Da) 1.4 mg/kg): 90 nM
plasma concentration ([2]; 3.5 h after administration of VLMWH (2500 Da) 1.4 mg/kg): 70 nM
plasma concentration ([2]; 4 h after administration of VLMWH (2500 Da) 1.4 mg/kg): 70 nM
plasma concentration ([2]; 4.5 h after administration of VLMWH (2500 Da) 1.4 mg/kg): 60 nM
plasma concentration ([2]; 5 h after administration of VLMWH (2500 Da) 1.4 mg/kg): 50 nM
plasma concentration ([2]; 6 h after administration of VLMWH (2500 Da) 1.4 mg/kg): 40 nM
plasma concentration ([2]; 7 h after administration of VLMWH (2500 Da) 1.4 mg/kg): 30 nM
plasma concentration ([2]; 8 h after administration of VLMWH (2500 Da) 1.4 mg/kg): 20 nM
plasma concentration ([2]; 9 h after administration of VLMWH (2500 Da) 1.4 mg/kg): 10 nM
plasma concentration ([2]; 10 h after administration of VLMWH (2500 Da) 1.4 mg/kg): 10 nM
plasma concentration ([2]; 12 h after administration of VLMWH (2500 Da) 1.4 mg/kg): 10 nM
plasma concentration ([2]; 14 h after administration of VLMWH (2500 Da) 1.4 mg/kg): 0 nM
Compound: O=C(O)C1=CC(O)C(OS(=O)(=O)O)C(OC2C(COS(=O)(=O)O)OC(OC3C(C(=O)O)OC(OC4C(COS(=O)(=O)O)OC(O)C(NS(=O)(=O)O)C4O)C(OS(=O)(=O)O)C3O)C(NS(=O)(=O)O)C2O)O1 (stereo not shown) [ΔIsIs]
